In brackets after ≈: the same amount, converted by molar mass. Several values for one entry are separate records, joined by “and”; a condition that tells them apart may be missing. Equal values may be shown once. Read-outs that look alike come from different tables or passages of the source.
Legend:
[1] = tested on: HeLa cells; assay: MTT cytotoxicity test on HeLa cells; assay type: cell-based, human; settings: for viability of HeLa cells (of control): 100–250 μg/mL
Description: Cytotoxic properties of all compounds were determined by 3-(4,5-dimethylthiazol-2-yl)-2,5-diphenyltetrazolium bromide (MTT) test reflecting cell viability. Cytotoxicity screening of all 27 compounds—2-acetylbenzofuran oxime (6) and its oxime ethers (1–5), as well as: 2-acetylthiophene (7–17), cyclohexanone (18–20), acetophenone (21–23), thiazole (24–25), benzothiazole (26–27) oxime ethers—was performed in vitro on human cervical adenocarcinoma (HeLa) cells as the representatives of cancerous cells.
(§1) 2-Acetylbenzofuran, 2-acetylbenzothiophene, 2-acetylthiophene, 2-acetylthiazole, cyclohexanone and acetophenone derivatives were used for in vitro cytotoxicity assays with cervical adenocarcinoma (HeLa), human dermal fibroblasts (HDF), lung epithelial carcinoma (A549), and intestinal epithelial carcinoma (Caco-2) cell lines. A549, Caco-2, and HeLa cells were obtained from Sigma-Aldrich (Germany), and HDF from Biokom (Poland). All cell lines were cultured according to the manufacturer’s protocol under sterile conditions in the presence of 4.9% CO2 at 37 °C. A549 cells were grown in F-12 medium containing 10% fetal bovine serum (FBS) and 1% penicillin/streptomycin. HDF cells were grown in DMEM (low glucose, with 2 mM glutamine) medium containing 10% fetal bovine serum (FBS) and 1% penicillin/streptomycin. Caco-2 cells were grown in EMEM medium containing 10% fetal bovine serum (FBS), 1% non-essential amino acids (NEAA) and 1% penicillin/streptomycin. HeLa cells were grown in DMEM (low glucose, with 2 mM glutamine) medium containing 10% fetal bovine serum (FBS) and 1% gentamycin. After thawing, cells were cultured until they reached sub-confluent state. The cells were then detached using 0.25% trypsin solution and seeded into 24-well or 96-well plates (3 × 10^3 cells per well) for further experiments. After 24 h growth, the tested compounds were added to the cell cultures in concentrations of 1, 10, 50, 100 and 250 μg mL^−1, respectively, and incubated for the next 24 h or 72 h. The MTT test, based on the ability to reduce 3-(4,5-dimethylthiazol 2-yl)-2,5-diphenyltetrazolium bromide (MTT) by mitochondrial dehydrogenases, was performed in triplicate to assess cell metabolic activity and viability. The plates were then read spectrophotometrically at a wavelength of 570 nm. The dose-dependence curves were charted directly on x-/y-axes, with the drug dosages on the x-axis and the cell viability (percentage of viable cells) on the y-axis.

[2] = MTT cytotoxicity test on HDF cells; assay type: cell-based, human; settings: human, human dermal fibroblasts (HDF), 24 h exposure
Description: (§2) Therefore, compounds showing the highest cytotoxicity (8, 9, 18, 22, 24–27) were further tested on normal human dermal fibroblasts (HDF), A549, Caco-2, and HeLa cells to compare their activity after 24 h and 72 h culture (Figure 5 and Figure 6).
as §1

[3] = tested on: human dermal fibroblasts (HDF); assay: MTT cytotoxicity test on HDF cells; assay type: cell-based; settings: Homo sapiens, Fibroblast, HDF
Description: as §2, §1

[4] = tested on: A549 cells; assay: MTT cytotoxicity test on A549 cells; assay type: cell-based; settings: Homo sapiens
Description: as §2, §1

[5] = tested on: Caco-2 cells; assay: MTT cytotoxicity test on Caco-2 cells; assay type: cell-based, human
Description: as §2, §1

[6] = tested on: cells; assay: LDH activity test (cell-membrane damage), cell lines not given; assay type: cell-based, human; settings: exposure at EC50 concentration, 24 h and 72 h; positive control 1% Triton X-100 = 100%
Source text: (§3) Summing up, only a few of the 27 tested derivatives could be promising as potential anti-cancer agents. Two of them—compound 22 and 27—would be a good starting point for future research. Therefore, we sought to compare their ability to induce necrotic cell death. Since necrotic cell death relies on the disruption of cell membrane, it results in the extracellular release of cytoplasmic enzymes such as lactate dehydrogenase (LDH). Thus, we compared LDH activity in the extracellular environment (culture media).
(§4) Additionally, the lactate dehydrogenase (LDH) activity test reflecting cell-membrane damage was performed for cells exposed to selected tested compounds. LDH activity was determined in the culture medium by measuring the decrease in NADH (nicotinamide adenine dinucleotide, reduced disodium salt). The decrease in the amount of NADH was directly correlated to the increase in the number of damaged cells. To measure LDH activity, the culture medium was collected from the wells with cells exposed to concentrations equal to the EC50 values of tested compounds after short- (24 h), and long-time (72 h) exposure. The LDH activity test was performed as follows: 25 μL of NADH (2.5 mg/mL) and 25 μL of sodium pyruvate (2.5 mg/mL) were added to 150 μL of the collected culture medium. Absorbance at 340 nm was spectrophotometrically measured. […]

[7] = tested on: HeLa cells; assay: LDH activity test (cell-membrane damage), HeLa cells; assay type: cell-based; settings: exposure at EC50 concentration
Source text: as §3, §4

[8] = Homo sapiens, HeLa, 24 h, HeLa, 24 h culture, MTT, read-out: EC50 for HeLa Cells
[9] = Homo sapiens, HeLa, 72 h, HeLa, 72 h, MTT, read-out: EC50 Value HeLa 72 h
[10] = 24 h, MTT, read-out: EC50 Value HDF 24 h
[11] = 72 h, MTT, read-out: EC50 Value HDF 72 h
[12] = A549, 24 h, MTT, read-out: EC50 Value A549 24 h
[13] = A549, 72 h, MTT, read-out: EC50 Value A549 72 h
[14] = A549, 72 h, read-out: EC50 A549
[15] = Homo sapiens, Caco-2, 24 h, MTT, read-out: EC50 Value Caco-2 24 h
[16] = Homo sapiens, Caco-2, 72 h, MTT, read-out: EC50 Value Caco-2 72 h
[17] = Homo sapiens, Caco-2, 72 h, read-out: EC50 Caco-2

SMILES	viability of HeLa cells (of control) ([1]; MTT)	EC50 [1, 8]	EC50 [1, 9]	EC50 [3, 10]	EC50 [3, 11]	EC50 [4, 12]	EC50 [4, 13]	EC50 [4, 14] [µM]	EC50 [5, 15]	EC50 [5, 16]	EC50 [5, 17] [µM]	melting point [°C]	further results
O=C(O)CON=C1CCCCC1 [Compound 18, 2-(cyclohexylideneaminoxy)acetic acid]	below 20%	32.3 µg/mL and 190 µM	4.9 µg/mL and 30 µM	43.7 µg/mL and 260 µM	14.7 µg/mL and 90 µM	47.8 µg/mL and 280 µM	17.9 µg/mL and 100 µM	90 to 100	44.4 µg/mL and 260 µM	17.5 µg/mL and 100 µM	90 to 100		viability at 100 µg/mL ([1]; Homo sapiens, HeLa, 100 μg/mL, 24 h exposure): ~20%; viability at 24 h, 100 μg/mL ([2]; 100 μg/mL): ~20%; EC50 ([3]; 72 h culture, read-out: EC50 HDF): 90 to 100 µM; viability at 100 µg/mL ([4]; A549, 100 μg/mL, 24 h exposure): ~20%; viability at 100 µg/mL ([5]; Homo sapiens, Caco-2, 100 μg/mL, 24 h exposure): ~20%
C/C(=N\OCCN1CCOCC1)c1ccccc1 [Compound 22, (E)-acetophenone O-2-morpholinoethyl oxime]	below 20%	23.1 µg/mL and 90 µM	30 µM	27.3 µg/mL and 110 µM	8.04 µg/mL and 30 µM	10.2 µg/mL and 40 µM	30 µM	~30	9.45 µg/mL and 40 µM	30 µM	~30		EC50 ([1]; Homo sapiens, HeLa, 72 h, HeLa, 72 h, read-out: EC50 HeLa): ~30 µM; viability at 50 µg/mL ([1]; Homo sapiens, HeLa, 50 μg/mL, 24 h exposure): ~20%; viability at 24 h, 50 μg/mL ([2]; 50 μg/mL): ~20%; viability at 50 µg/mL ([4]; A549, 50 μg/mL, 24 h exposure): ~20%; viability at 50 µg/mL ([5]; Homo sapiens, Caco-2, 50 μg/mL, 24 h exposure): ~20%; increase in LDH activity outside the cells (of positive control) [6]: ≤ 20%
C/C(=N\OCc1ccc(Br)cc1)c1nccs1 [Compound 25, (E)-1-(thiazol-2-yl)ethanone O-4-bromobenzyl oxime]		130 µg/mL and 420 µM	47.3 µg/mL and 150 µM	37.9 µg/mL and 120 µM	25.7 µg/mL and 80 µM	> 250 µg/mL and > 800 µM	79.9 µg/mL and 260 µM		70.8 µg/mL and 230 µM	50.5 µg/mL and 160 µM		67 to 70	
CC(=NOCc1ccc(Cl)cc1Cl)c1cc2ccccc2s1 [Compound 26, (E)-1-(benzothiophene-2-yl)ethanone O-2,4-dichlorobenzyl oxime]		121 µg/mL and 350 µM	8.18 µg/mL and 20 µM	135 µg/mL and 380 µM	25.7 µg/mL and 70 µM	199 µg/mL and 570 µM	177 µg/mL and 510 µM		> 250 µg/mL and > 710 µM	50.1 µg/mL and 140 µM		113 to 117	
COc1ccc(CO/N=C(\C)c2cc3ccccc3s2)cc1 [Compound 27, (E)-1-(benzothiophene-2-yl)ethanone O-4-methoxybenzyl oxime]		93.8 µg/mL and 300 µM	28 µg/mL and 90 µM	150 µg/mL and 480 µM	140 µg/mL and 450 µM	> 250 µg/mL and > 800 µM	143 µg/mL and 460 µM		122 µg/mL and 390 µM	116 µg/mL and 370 µM			EC50 Value HeLa 72 h ([1]; HeLa, 72 h, MTT): 27.9 µg/mL (≈ 89.6 µM); EC50 Value Caco-2 72 h ([5]; Caco-2, 72 h, MTT): 116.47 µg/mL (≈ 374 µM); membrane damage and release of LDH [7]: extreme membrane damage and release of LDH
